From patent publication US20250195521A1 (Revolution Medicines, Inc., priority 2020, published 2025)
Where “and” joins values, the source holds several entries; their conditions need not be identical. Equal values may be shown once.

Columns and labels:
[1] = test system: Capan-1 cells (K-Ras G12V); assay: CellTiter-Glo cell viability, Capan-1; type: cell-based, human; settings: Homo sapiens, CAPAN-1, 120 h, K-Ras G12V, 5-day treatment; read-out: Capan-1 Cell Viability IC50
Method in brief: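 Compounds were dispensed directly onto seeded cells and incubated until day 5, then plates were equilibrated at room temperature for about 30 min before CellTiter-Glo luminescence readout. Signals were normalized as (sample/average DMSO)×100 and fitted with a four-parameter logistic model.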

[2] = test system: K-Ras G12C (NCI-H358 cells); assay: Potency assay: pERK in NCI-H358 cells; type: cell-based, human; settings: Homo sapiens; NCI-H358 cells, 4 hours; read-out: pERK EC50 (H358 KRAS G12C)
Method in brief: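 Cells plated the day before were exposed for 4 h at 37° C, 5% CO2 to a 10-point, 3-fold DMSO dilution series (10 mM top stock), in duplicate. Phospho-ERK was read by AlphaLISA SureFire Ultra or by In-Cell Western with DRAQ5 DNA stain, and IC50 came from a 4-parameter sigmoidal fit.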

KRAS G12D = KRAS G12D (Homo sapiens (Human), UniProt P01116+P62937, G12D); assay: Ras-Raf disruption/FRET/MOA assay (BRAF RBD, Cyclophilin A); type: biochemical; settings: read-out: KRAS G12D FRET IC50
Method in brief: (§1)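 Ras-GMPPNP (12.5 nM), BRAF RBD (50 nM) and 25 μM Cyclophilin A were incubated with compound for 3 h at 25° C, then detected 1.5 h with anti-His Eu and anti-GST APC; IC50 values follow from the reduced TR-FRET ratio.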

NRAS G12C = NRAS G12C (Homo sapiens (Human), UniProt P01111+P62937, G12C); assay: as above; type: biochemical; settings: read-out: NRAS G12C FRET data IC50
Method in brief: (§2)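 TR-FRET readout: anti-His Eu-W1024 (10 nM) and anti-GST allophycocyanin (50 nM) added after 3 h, 25° C compound incubation, then 1.5 h more. Decrease in FRET ratio versus DMSO wells marks Ras:RAF disruption; IC50 reported.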

KRAS G12C = KRAS G12C (Homo sapiens (Human), UniProt P01116+P62937, G12C); assay: as above; type: biochemical; settings: read-out: KRAS G12C FRET IC50
Method in brief: as §1

KRAS WT = KRAS WT (Homo sapiens (Human), UniProt P01116+P62937); assay: as above; type: biochemical; settings: read-out: KRAS WT FRET data IC50
Method in brief: as §1

KRAS G12V = KRAS G12V (Homo sapiens (Human), UniProt P01116+P62937, G12V); assay: as above; type: biochemical; settings: read-out: KRAS G12V FRET IC50
Method in brief: as §1

KRAS G13D = KRAS G13D (Homo sapiens (Human), UniProt P01116+P62937, G13D); assay: as above; type: biochemical; settings: read-out: KRAS G13D FRET data IC50
Method in brief: as §1

KRAS G13C = KRAS G13C (Homo sapiens (Human), UniProt P01116+P62937, G13C); assay: as above; type: biochemical; settings: read-out: KRAS G13C FRET IC50
Method in brief: as §1

NRAS Q61R = NRAS Q61R (Homo sapiens (Human), UniProt P01111+P62937, Q61R); assay: as above; type: biochemical
Method in brief: as §2

NRAS WT = NRAS WT (Homo sapiens (Human), UniProt P01111+P62937); assay: as above; type: biochemical
Method in brief: as §2

NRAS Q61K = NRAS Q61K (Homo sapiens (Human), UniProt P01111+P62937, Q61K); assay: as above; type: biochemical
Method in brief: as §2

KRAS G12S = KRAS G12S (Homo sapiens (Human), UniProt P01116+P62937, G12S); assay: as above; type: biochemical; settings: read-out: KRAS G12S FRET IC50
Method in brief: as §1

KRAS Q61H = KRAS Q61H (Homo sapiens (Human), UniProt P01116+P62937, Q61H); assay: as above; type: biochemical
Method in brief: as §1

KRAS G13C, sequence (P01116 other isoform, or with tags, fused parts or gaps G13C): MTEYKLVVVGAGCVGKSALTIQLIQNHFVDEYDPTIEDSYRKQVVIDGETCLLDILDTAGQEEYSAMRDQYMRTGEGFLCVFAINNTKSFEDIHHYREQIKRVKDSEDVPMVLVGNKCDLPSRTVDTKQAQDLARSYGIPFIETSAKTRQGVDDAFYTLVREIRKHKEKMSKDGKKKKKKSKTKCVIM
KRAS G13C, sequence (P62937 whole entry): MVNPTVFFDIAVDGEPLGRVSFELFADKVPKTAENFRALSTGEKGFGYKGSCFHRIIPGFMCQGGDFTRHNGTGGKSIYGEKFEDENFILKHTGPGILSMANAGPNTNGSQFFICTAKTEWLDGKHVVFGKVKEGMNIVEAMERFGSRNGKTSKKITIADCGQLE
KRAS G13D, sequence (P01116 other isoform, or with tags, fused parts or gaps G13D): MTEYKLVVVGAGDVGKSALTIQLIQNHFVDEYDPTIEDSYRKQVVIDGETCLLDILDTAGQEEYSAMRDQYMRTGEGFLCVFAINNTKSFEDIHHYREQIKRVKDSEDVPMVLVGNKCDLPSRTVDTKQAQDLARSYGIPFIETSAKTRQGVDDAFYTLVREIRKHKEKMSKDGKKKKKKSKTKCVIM
KRAS G13D, sequence (P62937 whole entry): as the sequence (P62937 whole entry) above
KRAS G12S, sequence (P01116 other isoform, or with tags, fused parts or gaps G12S): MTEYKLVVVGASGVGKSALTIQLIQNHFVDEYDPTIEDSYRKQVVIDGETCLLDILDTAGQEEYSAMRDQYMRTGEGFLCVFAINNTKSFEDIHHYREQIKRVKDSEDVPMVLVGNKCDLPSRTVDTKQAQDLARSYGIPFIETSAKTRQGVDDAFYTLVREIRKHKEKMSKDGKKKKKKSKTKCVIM
KRAS G12S, sequence (P62937 whole entry): as the sequence (P62937 whole entry) above
KRAS G12V, sequence (P01116 other isoform, or with tags, fused parts or gaps G12V): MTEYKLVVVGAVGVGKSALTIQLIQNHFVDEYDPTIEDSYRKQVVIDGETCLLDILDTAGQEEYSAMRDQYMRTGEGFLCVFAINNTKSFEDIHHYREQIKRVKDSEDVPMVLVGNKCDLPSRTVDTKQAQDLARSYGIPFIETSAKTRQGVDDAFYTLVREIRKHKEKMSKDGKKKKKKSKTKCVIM
KRAS G12V, sequence (P62937 whole entry): as the sequence (P62937 whole entry) above
NRAS G12C, sequence (P01111 whole entry G12C): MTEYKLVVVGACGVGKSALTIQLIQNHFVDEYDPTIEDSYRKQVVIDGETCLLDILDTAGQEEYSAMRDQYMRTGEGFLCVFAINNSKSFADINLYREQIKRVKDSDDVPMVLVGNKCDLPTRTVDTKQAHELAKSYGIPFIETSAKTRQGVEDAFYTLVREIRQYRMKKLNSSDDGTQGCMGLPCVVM
NRAS G12C, sequence (P62937 whole entry): as the sequence (P62937 whole entry) above
KRAS G12C, sequence (P01116-2 other isoform, or with tags, fused parts or gaps G12C): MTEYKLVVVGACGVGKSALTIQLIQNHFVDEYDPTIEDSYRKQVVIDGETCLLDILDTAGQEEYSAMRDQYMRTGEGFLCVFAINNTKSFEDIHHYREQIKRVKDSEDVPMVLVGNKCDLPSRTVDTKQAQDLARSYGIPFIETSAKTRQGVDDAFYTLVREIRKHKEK
KRAS G12C, sequence (P62937 whole entry): as the sequence (P62937 whole entry) above
KRAS Q61H, sequence (P01116 other isoform, or with tags, fused parts or gaps Q61H): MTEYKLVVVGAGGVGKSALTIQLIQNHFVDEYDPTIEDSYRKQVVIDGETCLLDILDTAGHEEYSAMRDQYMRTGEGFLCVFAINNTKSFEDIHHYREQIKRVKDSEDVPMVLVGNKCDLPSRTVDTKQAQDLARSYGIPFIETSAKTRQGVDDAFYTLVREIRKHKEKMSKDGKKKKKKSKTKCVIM
KRAS Q61H, sequence (P62937 whole entry): as the sequence (P62937 whole entry) above
KRAS G12D, sequence (P01116 other isoform, or with tags, fused parts or gaps G12D): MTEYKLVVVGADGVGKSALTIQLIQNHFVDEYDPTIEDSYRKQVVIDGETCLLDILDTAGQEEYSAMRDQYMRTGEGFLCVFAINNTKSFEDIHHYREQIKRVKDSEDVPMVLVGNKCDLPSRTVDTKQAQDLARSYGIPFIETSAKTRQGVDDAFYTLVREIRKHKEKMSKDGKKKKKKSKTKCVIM
KRAS G12D, sequence (P62937 whole entry): as the sequence (P62937 whole entry) above
KRAS WT, sequence (P01116 other isoform, or with tags, fused parts or gaps): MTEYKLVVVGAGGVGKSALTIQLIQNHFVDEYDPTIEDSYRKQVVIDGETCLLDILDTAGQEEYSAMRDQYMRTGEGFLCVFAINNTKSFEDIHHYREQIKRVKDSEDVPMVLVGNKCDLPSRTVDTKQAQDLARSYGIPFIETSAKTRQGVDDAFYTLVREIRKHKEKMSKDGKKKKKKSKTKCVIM
KRAS WT, sequence (P62937 whole entry): as the sequence (P62937 whole entry) above
NRAS Q61R, sequence (P01111 whole entry Q61R): as the sequence (P01111 whole entry G12C) above, with C12G, Q61R counted along it
NRAS Q61R, sequence (P62937 whole entry): as the sequence (P62937 whole entry) above
NRAS WT, sequence (P01111 whole entry): as the sequence (P01111 whole entry G12C) above, with C12G counted along it
NRAS WT, sequence (P62937 whole entry): as the sequence (P62937 whole entry) above
NRAS Q61K, sequence (P01111 whole entry Q61K): as the sequence (P01111 whole entry G12C) above, with C12G, Q61K counted along it
NRAS Q61K, sequence (P62937 whole entry): as the sequence (P62937 whole entry) above

| EC50 [2] | IC50 (KRAS G12D) | IC50 (NRAS G12C) | IC50 (KRAS G12C) | IC50 (KRAS WT) | IC50 (KRAS G12V) | IC50 (KRAS G13D) | IC50 (KRAS G13C) | IC50 (NRAS Q61R) | IC50 (NRAS WT) | IC50 (NRAS Q61K) | IC50 (KRAS G12S) | IC50 (KRAS Q61H) | SMILES | IC50 [1] |
| --- | --- | --- | --- | --- | --- | --- | --- | --- | --- | --- | --- | --- | --- | --- |
| < 5000 nM | 1000 to 10000 nM | 100 to 1000 nM | 100 to 1000 nM | 100 to 1000 nM | 100 to 1000 nM | 100 to 1000 nM | 100 to 1000 nM | 1000 to 10000 nM | 100 to 1000 nM | 100 to 1000 nM | 1000 to 10000 nM | 100 to 1000 nM | CCn1c(-c2cccnc2[C@H](C)OC)c2c3cc(ccc31)-c1cc(O)cc(c1)C[C@H](NC(=O)[C@@H]1CCCCCN1C(C)=O)C(=O)N1CCC[C@H](N1)C(=O)OCC(C)(C)C2 [Compound A176] | 1000 to 10000 nM |
| – | 1000 to 10000 nM | 1000 to 10000 nM | 100 to 1000 nM | 100 to 1000 nM | 1000 to 10000 nM | 1000 to 10000 nM | 100 to 1000 nM | 1000 to 10000 nM | 100 to 1000 nM | 100 to 1000 nM | 1000 to 10000 nM | 100 to 1000 nM | CCn1c(-c2cccnc2[C@H](C)OC)c2c3cc(ccc31)-c1cc(O)cc(c1)C[C@H](NC(=O)[C@@H]1[C@@H](C)CCN1C(C)=O)C(=O)N1CCC[C@H](N1)C(=O)OCC(C)(C)C2 [Compound A208] | > 10000 nM |
| – | 100 to 1000 nM | 10 to 100 nM | 10 to 100 nM | 10 to 100 nM | 10 to 100 nM | 100 to 1000 nM | 10 to 100 nM | 100 to 1000 nM | 10 to 100 nM | 100 to 1000 nM | 10 to 100 nM | 10 to 100 nM | CCn1c(-c2cccnc2[C@H](C)OC)c2c3cc(ccc31)-c1cc(O)cc(c1)C[C@H](NC(=O)[C@H](C(C)C)N(C)C(=O)C1CCC(=O)N1C)C(=O)N1CCC[C@H](N1)C(=O)OCC(C)(C)C2 (stereo partly drawn) [Compound A230] | 1000 to 10000 nM |
| – | 100 to 1000 nM | 10 to 100 nM | 10 to 100 nM | 100 to 1000 nM | 10 to 100 nM | 100 to 1000 nM | 100 to 1000 nM | 100 to 1000 nM | 100 to 1000 nM | 100 to 1000 nM | 100 to 1000 nM | 100 to 1000 nM | CCn1c(-c2cccnc2[C@H](C)OC)c2c3cc(ccc31)-c1csc(n1)C[C@H](NC(=O)N1CCN(C)CC1)C(=O)N1CCC[C@H](N1)C(=O)OCC(C)(C)C2 [Compound A265, N-((6^3S,4S,Z)-1^1-ethyl-1^2-(2-((S)-1-methoxyethyl)pyridin-3-yl)-10, 10-dimethyl-5,7-dioxo-6^1,6^2,6^3,6^4,6^5,6^6-hexahydro-1^1H-8-oxa-2 (4,2)-thiazola-1 (5,3)-indola-6 (1,3)-pyridazinacycloundecaphane-4-yl)-4-methylpiperazine-1-carboxamide] | 1000 to 10000 nM |

| SMILES | EC50 [2] | IC50 (KRAS G12D) | IC50 (NRAS G12C) | IC50 (KRAS G12C) | IC50 (KRAS WT) | IC50 (KRAS G12V) | IC50 (KRAS G13D) | IC50 (KRAS G13C) | IC50 (NRAS Q61R) | IC50 (NRAS WT) | IC50 (NRAS Q61K) | IC50 (KRAS G12S) | IC50 (KRAS Q61H) | IC50 [1] |
| --- | --- | --- | --- | --- | --- | --- | --- | --- | --- | --- | --- | --- | --- | --- |
| CCn1c(-c2cccnc2[C@H](C)OC)c2c3cc(ccc31)-c1cc(O)cc(c1)C[C@H](NC(=O)CC(C)c1ccncc1)C(=O)N1CCC[C@H](N1)C(=O)OCC(C)(C)C2 (stereo partly drawn) [Compound A178] | – | 1000 to 10000 nM and > 10000 nM | 1000 to 10000 nM | 100 to 1000 nM and 1000 to 10000 nM | 100 to 1000 nM and 1000 to 10000 nM | 1000 to 10000 nM | 1000 to 10000 nM | 100 to 1000 nM | 1000 to 10000 nM and > 10000 nM | 100 to 1000 nM and 1000 to 10000 nM | 1000 to 10000 nM | 1000 to 10000 nM | 100 to 1000 nM | > 10000 nM |
